Laboratory results published in ChEMBL document CHEMBL1201862, “PubChem BioAssay data set” (2004).
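Five concentrations, 48 hours, 96-well plates. GI50 marks 50% less growth.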 The source made the active and inactive calls. Cut-off read from the data, not from the text of the source: active = GI50 up to about 1.1 µM and inactive = higher.

Key:
Assay in all cases: inhibition of tumour cell growth, NCI panel, 48 h
786-0 = system: 786-0
A498 = system: A498
A549 = system: A549
ACHN = system: ACHN
BT-549 = system: BT-549
CAKI-1 = system: CAKI-1
CCRF-CEM = system: CCRF-CEM
COLO 205 = system: COLO 205
DU-145 = system: DU-145
EKVX = system: EKVX
HCC 2998 = system: HCC 2998
HCT-116 = system: HCT-116
HCT-15 = system: HCT-15
HL-60 = system: HL-60
HOP-62 = system: HOP-62
HOP-92 = system: HOP-92
HT-29 = system: HT-29
Hs-578T = system: Hs-578T
IGROV-1 = system: IGROV-1
K562 = system: K562
KM12 = system: KM12
LOX IMVI = system: LOX IMVI
M14 = system: M14
MCF7 = system: MCF7
MDA-MB-231 = system: MDA-MB-231
MDA-MB-435 = system: MDA-MB-435
MDA-N = system: MDA-N
MOLT-4 = system: MOLT-4
NCI-H226 = system: NCI-H226
NCI-H23 = system: NCI-H23
NCI-H460 = system: NCI-H460
NCI/ADR-RES = system: NCI/ADR-RES
OVCAR-3 = system: OVCAR-3
OVCAR-4 = system: OVCAR-4
OVCAR-5 = system: OVCAR-5
OVCAR-8 = system: OVCAR-8
PC-3 = system: PC-3
RPMI-8226 = system: RPMI-8226
RXF 393 = system: RXF 393
SF-268 = system: SF-268
SF-295 = system: SF-295
SF-539 = system: SF-539
SK-MEL-28 = system: SK-MEL-28
SK-MEL-2 = system: SK-MEL-2
SK-OV-3 = system: SK-OV-3
SN12C = system: SN12C
SNB-19 = system: SNB-19
SNB-75 = system: SNB-75
SR = system: SR
SW-620 = system: SW-620
T47D = system: T47D
TK-10 = system: TK-10
U-251 = system: U-251
UACC-257 = system: UACC-257
UACC-62 = system: UACC-62
UO-31 = system: UO-31
Malme-3M = system: Malme-3M
NCI-H522 = system: NCI-H522
SK-MEL-5 = system: SK-MEL-5

Measured: GI50

N#CC(C#N)=C1CCCS(=O)(=O)c2ccccc21
inactive: 786-0 > 100 µM | A498 56.4 µM | A549 > 100 µM | ACHN > 100 µM | BT-549 > 100 µM | CAKI-1 > 100 µM | CCRF-CEM > 100 µM | COLO 205 > 100 µM | DU-145 > 100 µM | EKVX > 100 µM | HCC 2998 > 100 µM | HCT-116 > 100 µM | HL-60 > 100 µM | HOP-62 > 100 µM | HOP-92 > 100 µM | HT-29 > 100 µM | Hs-578T > 100 µM | IGROV-1 > 100 µM | K562 > 100 µM | KM12 > 100 µM | LOX IMVI > 100 µM | M14 > 100 µM | MCF7 > 100 µM | MDA-MB-231 > 100 µM | MDA-MB-435 > 100 µM | MDA-N > 100 µM | MOLT-4 > 100 µM | NCI-H226 > 100 µM | NCI-H23 > 100 µM | NCI-H460 > 100 µM | NCI/ADR-RES > 100 µM | OVCAR-3 > 100 µM | OVCAR-4 > 100 µM | OVCAR-5 > 100 µM | OVCAR-8 > 100 µM | PC-3 > 100 µM | RPMI-8226 > 100 µM | RXF 393 > 100 µM | SF-268 > 100 µM | SF-295 > 100 µM | SF-539 > 100 µM | SK-MEL-28 > 100 µM | SK-MEL-2 > 100 µM | SK-OV-3 > 100 µM | SN12C > 100 µM | SNB-19 > 100 µM | SNB-75 > 100 µM | SR > 100 µM | SW-620 > 100 µM | T47D > 100 µM | TK-10 > 100 µM | U-251 > 100 µM | UACC-257 > 100 µM | UACC-62 > 100 µM | UO-31 > 100 µM
> 100 µM: HCT-15

C/C1=C/C(C)CC(C)OC(=O)C(C)NC(=O)C(Cc2ccc(O)c(I)c2)N(C)C(=O)C(C)NC(=O)C(C)C1 (stereo unspecified)
inactive: OVCAR-5 7.23 µM
active: 786-0 < 0.01 µM | A498 < 0.01 µM | A549 < 0.01 µM | ACHN < 0.01 µM | BT-549 < 0.01 µM | CAKI-1 < 0.01 µM | CCRF-CEM < 0.01 µM | COLO 205 < 0.01 µM | DU-145 0.0302 µM | EKVX 0.0262 µM | HCC 2998 < 0.01 µM | HCT-116 < 0.01 µM | HL-60 < 0.01 µM | HOP-62 < 0.01 µM | HOP-92 < 0.0134 µM | HT-29 < 0.01 µM | Hs-578T < 0.01 µM | IGROV-1 < 0.01 µM | K562 < 0.01 µM | KM12 < 0.01 µM | LOX IMVI < 0.01 µM | M14 < 0.015 µM | MCF7 < 0.0371 µM | MDA-MB-231 < 0.01 µM | MDA-MB-435 < 0.01 µM | MDA-N < 0.01 µM | MOLT-4 < 0.0187 µM | Malme-3M < 0.0242 µM | NCI-H226 < 0.0363 µM | NCI-H23 0.311 µM | NCI-H460 < 0.01 µM | NCI-H522 < 0.01 µM | NCI/ADR-RES 0.026 µM | OVCAR-3 < 0.01 µM | OVCAR-4 < 0.01 µM | OVCAR-8 0.0354 µM | PC-3 < 0.01 µM | RPMI-8226 < 0.01 µM | RXF 393 < 0.01 µM | SF-268 < 0.0166 µM | SF-295 < 0.0316 µM | SF-539 < 0.01 µM | SK-MEL-28 0.0314 µM | SK-MEL-5 < 0.0133 µM | SK-OV-3 < 0.01 µM | SN12C < 0.0249 µM | SNB-19 0.0667 µM | SNB-75 < 0.01 µM | SR < 0.01 µM | SW-620 < 0.01 µM | T47D 0.0653 µM | TK-10 < 0.01 µM | U-251 < 0.01 µM | UACC-257 < 0.01 µM | UACC-62 < 0.0256 µM | UO-31 0.0127 µM
< 0.0164 µM: HCT-15

O=C1CSC(c2cccc(Oc3ccccc3)c2)N1c1cccc(Cl)c1Cl (stereo unspecified)
19.5 µM: HCT-15
inactive: 786-0 27.7 µM | A498 26.1 µM | A549 > 100 µM | ACHN 20.7 µM | BT-549 19.9 µM | CAKI-1 65.2 µM | CCRF-CEM 18.5 µM | COLO 205 20 µM | DU-145 45 µM | EKVX 25.2 µM | HCC 2998 12.3 µM | HCT-116 21.2 µM | HL-60 22.7 µM | HOP-62 41.4 µM | HOP-92 12.3 µM | HT-29 22.4 µM | Hs-578T 27.8 µM | K562 20.4 µM | KM12 26.7 µM | LOX IMVI 13.6 µM | M14 40.4 µM | MCF7 13.7 µM | MDA-MB-231 22.3 µM | MDA-MB-435 13.7 µM | MDA-N 21 µM | MOLT-4 22.5 µM | Malme-3M 30.4 µM | NCI-H226 28.5 µM | NCI-H23 27.5 µM | NCI-H460 26 µM | NCI-H522 20.7 µM | NCI/ADR-RES 21.9 µM | OVCAR-3 30.5 µM | OVCAR-4 23.2 µM | OVCAR-5 33.5 µM | OVCAR-8 19.8 µM | PC-3 25.7 µM | RXF 393 57.1 µM | SF-268 23.6 µM | SF-295 39.5 µM | SF-539 22.9 µM | SK-MEL-28 50 µM | SK-MEL-2 18.1 µM | SK-MEL-5 18.4 µM | SK-OV-3 65.9 µM | SN12C 31.5 µM | SNB-19 42.8 µM | SNB-75 41 µM | SR 19.8 µM | SW-620 29.1 µM | T47D 35.8 µM | TK-10 34.6 µM | U-251 18.2 µM | UACC-257 24.4 µM | UACC-62 17.8 µM | UO-31 36.9 µM

O=C1NC(=O)/C(=C/c2ccc(S(=O)(=O)N/N=C/c3ccc(Cl)cc3)cc2)N1
inactive: 786-0 > 100 µM | A498 23.6 µM | A549 > 100 µM | ACHN > 100 µM | BT-549 > 100 µM | CAKI-1 > 100 µM | CCRF-CEM > 100 µM | COLO 205 > 100 µM | DU-145 > 100 µM | EKVX > 100 µM | HCC 2998 > 100 µM | HCT-116 > 100 µM | HL-60 72.9 µM | HOP-62 > 100 µM | HOP-92 78.5 µM | HT-29 > 100 µM | Hs-578T > 100 µM | IGROV-1 92.9 µM | K562 > 100 µM | KM12 > 100 µM | LOX IMVI > 100 µM | M14 > 100 µM | MCF7 > 100 µM | MDA-MB-231 > 100 µM | MDA-MB-435 > 100 µM | MDA-N > 100 µM | MOLT-4 > 100 µM | Malme-3M > 100 µM | NCI-H226 > 100 µM | NCI-H23 > 100 µM | NCI-H460 > 100 µM | NCI/ADR-RES > 100 µM | OVCAR-3 65.9 µM | OVCAR-4 > 100 µM | OVCAR-5 > 100 µM | OVCAR-8 > 100 µM | PC-3 > 100 µM | RPMI-8226 > 100 µM | RXF 393 > 100 µM | SF-268 > 100 µM | SF-295 > 100 µM | SK-MEL-28 > 100 µM | SK-MEL-2 > 100 µM | SK-MEL-5 > 100 µM | SK-OV-3 > 100 µM | SN12C > 100 µM | SNB-19 > 100 µM | SNB-75 > 100 µM | SR 61.2 µM | SW-620 > 100 µM | T47D > 100 µM | TK-10 > 100 µM | U-251 > 100 µM | UACC-257 > 100 µM | UACC-62 > 100 µM | UO-31 > 100 µM
> 100 µM: HCT-15

O=C(O)[C@@H]1C[C@@H](O)CN1
inactive: 786-0 > 100 µM | A498 > 100 µM | A549 > 100 µM | ACHN > 100 µM | BT-549 > 100 µM | CAKI-1 > 100 µM | CCRF-CEM > 100 µM | COLO 205 > 100 µM | DU-145 > 100 µM | EKVX > 100 µM | HCC 2998 > 100 µM | HCT-116 > 100 µM | HL-60 > 100 µM | HOP-62 > 100 µM | HOP-92 > 100 µM | HT-29 > 100 µM | Hs-578T > 100 µM | IGROV-1 > 100 µM | K562 > 100 µM | KM12 > 100 µM | LOX IMVI > 100 µM | M14 > 100 µM | MCF7 > 100 µM | MDA-MB-231 > 100 µM | MDA-MB-435 > 100 µM | MDA-N > 100 µM | MOLT-4 > 100 µM | Malme-3M > 100 µM | NCI-H226 > 100 µM | NCI-H23 > 100 µM | NCI-H460 > 100 µM | NCI/ADR-RES > 100 µM | OVCAR-3 > 100 µM | OVCAR-4 > 100 µM | OVCAR-5 > 100 µM | OVCAR-8 > 100 µM | PC-3 > 100 µM | RPMI-8226 > 100 µM | RXF 393 > 100 µM | SF-268 > 100 µM | SF-295 > 100 µM | SF-539 > 100 µM | SK-MEL-28 > 100 µM | SK-MEL-2 > 100 µM | SK-MEL-5 > 100 µM | SK-OV-3 > 100 µM | SN12C > 100 µM | SNB-19 > 100 µM | SNB-75 > 100 µM | SR > 100 µM | SW-620 > 100 µM | T47D > 100 µM | TK-10 > 100 µM | U-251 > 100 µM | UACC-257 > 100 µM | UACC-62 > 100 µM | UO-31 > 100 µM
> 100 µM: HCT-15
